{
  "source": "patent US3974281A",
  "about": "“5-Methyl-1-phenyl-2-(1H)-pyridone compositions and methods of use” (priority 1974, dated 1976)",
  "key": {"rabbit leg muscle": {"system": "rabbit leg muscle", "assay": "Local toxicity of intramuscular injection into rabbit leg muscle", "assay_type": "in vivo, New Zealand white rabbits", "procedure": "six healthy adult New Zealand white rabbits from a stock colony were injected into the large muscle mass of the leg with a 2.0 milliliter volume of 2.0% aqueous solution of AMR-69. The response was compared to the intramuscular injection of 2.0 ml. of an isotonic solution of sodium chloride. The animals were carefully observed for any evidence of discomfort for a period of three hours. […] Three hours after the injection, the animals were sacrificed and a careful dissection was made around the injection site of the: (1) skin, (2) subcutaneous fascia, and (3) muscle tissue for a gross examination under a low powder binocular mircroscope for any tissue reaction. […] Similarly, no tissue reaction was found following the intramuscular injection of the isotonic saline. One change noted in two rabbits reflected a hemorrhage from a vein which was cut as the hypodermic needle passed into the tissue. After the gross examination, the muscle masses were dissected out, removed and preserved in buffered formalin for histological examination."}, "[1]": {"system": "rats with the hind limb inflammed", "assay": "Analgesic activity, rats with inflamed hind limb (absence of squeal on flexion of inflamed ankle joint)", "assay_type": "in vivo, rat", "conditions": "oral", "procedure": "the end-point for analgesic testing in rats with the hind limb inflammed is based on the absence of a squeal in response to flexion of the inflammed ankle joint (Method described by S. Margolin, Proceedings of an International Symposium on Non-Steroidal Anti-Inflammatory Drugs, Excerpta Medica International Congress, Series No. 82, 1964).\nWith AMR-93, the median effective dose was 325 ± 45 mg./kg."}, "blood": {"system": "blood", "assay": "Blood studies after administration for efficacy, and acute and chronic toxicity", "assay_type": "in vivo", "conditions": "therapeutic or sublethal amounts; rats, mice, rabbits and dogs"}, "[2]": {"system": "mucous membranes of the nasopharynx and lungs", "assay": "Protection of mucous membranes of the nasopharynx and lungs, comparison with related pyridones", "assay_type": "in vivo", "conditions": "comparison with related pyridones"}, "[3]": {"assay": "Tolerability on administration over extended periods", "assay_type": "in vivo", "source_text": "It may be administered orally, topically, parenterally, intradermally, by inhalation spray in formulations containing conventional non-toxic pharmaceutically acceptable carriers, adjuvants and vehicles. The term parenteral as used herein includes subcutaneous injections, intravenous, intromuscular, intracisternal or intrathecal injection or infusion techniques."}, "skin conditions": {"system": "skin conditions", "assay": "Effect on skin conditions (dermatitis, itching, insect sting, poison ivy) in humans", "assay_type": "in vivo, human"}, "[4]": {"system": "mucous linings of the respiratory system", "assay": "Clinical trials on humans with sinusitis, post-nasal drip, rhinitis, conjunctivitis, headache, earache, sore throat", "assay_type": "in vivo, human", "conditions": "oral capsule, approximately 400 mg. per capsule"}, "[5]": {"system": "edema (swelling), experimental inflammation in the hind limb of rats", "assay": "Anti-inflammatory activity, reduction of edema of experimentally inflamed hind limb", "assay_type": "in vivo, albino rats", "conditions": "oral", "procedure": "anti-inflammatory activity was assayed by the method described by Margolin (ibid.) utilizing albino rats. The anti-inflammatory bio-assay basis is the ability to reduce the edema (swelling) when an experimental inflammation is induced in the hind limb of the rats."}, "[6]": {"system": "glucose level in the serum", "assay": "Reduction in serum glucose levels, nine week diet test in rats", "assay_type": "in vivo, weanling rats of the Carworth Farms CFE Strain"}, "[7]": {"system": "rabbit eye (conjunctival sac)", "design": "species or system albino rabbits of the New Zealand strain", "conditions": "in vivo", "procedure": "six male albino rabbits of the New Zealand strain were incorporated in this study. A dosage of 0.1 ml. of AMR-69-62 (2% Aqueous Solution) was introduced into the conjunctival sac of the left eye of each rabbit; the right eye served as an untreated control. The six treated rabbit eyes were scored against the corresponding untreated control eyes according to the method of Draize (Draize, J.H., in Appraisal of the Safety of Chemicals in Foods, Drugs and Cosmetics, Assoc. of Food and Drug Officials of U.S., Austin, Tex., 1959) at 0.5 minutes, 30 minutes and 3.0 hours after administration of AMR-69."}, "[8]": {"system": "fasted albino mice (Flanders)", "assay": "Acute toxicity in mice", "assay_type": "in vivo", "conditions": "oral and intraperitoneal", "procedure": "(§1) in fasted albino mice (Flanders) the LD50 for AMR-69 and aminopyrine was determined by standard procedures with the following results: […]"}, "Acute toxicity in mice": {"assay": "Acute toxicity in mice", "assay_type": "in vivo", "conditions": "mouse, in vivo, ip; fasted albino mice, intraperitoneal; read-out: Intraperitoneally LD50", "procedure": "as §1"}, "[9]": {"system": "experimentally-induced fever in albino rabbits", "assay": "Anti-pyretic activity, experimentally-induced fever in rabbits", "assay_type": "in vivo", "procedure": "anti-pyretic activity testing is based upon the ability of the drug to suppress the experimentally-induced fever in albino rabbits (F. M. Berger, et al. J. Pharmacology and Experimental Therapeutics, Vol. 127, No. 1, 1959 based upon the original presentations of G. Brownlee Quart. J. Pharm; Vol. 10, Pg. 609, 1937 and Quart. J. Pharm., Vol. 12, Pg. 45, 1939). The drugs under test are administered intraperitoneally and the response is compared to that of saline controls. The average change in temperature over a period of three hours following the administration of aminopyrine (100 mg./kg. i.p.), AMR-69 (100 mg./kg. i.p.) and the saline (isotonic) controls were as follows:\nThe effective anti-pyretic activity of AMR-69 in rabbits has been noted previously."}, "[10]": {"assay": "Absorption into the blood stream", "conditions": "in vivo"}, "dog lung tissues": {"system": "dog lung tissues", "assay": "Protection of mucous membranes against noxious agents, microscopic examination of dog lung tissues", "assay_type": "in vivo"}, "Solubility": {"assay": "Solubility", "assay_type": "physicochemical"}, "rat lung tissues": {"system": "rat lung tissues", "assay": "Protection of mucous membranes against noxious agents, gross examination of rat lung tissues", "assay_type": "in vivo"}},
  "note": "“Also recorded” adds a separate entry of the source.",
  "data": [
    {"molecule": "Cc1ccc(=O)n(-c2ccccc2)c1", "note": "[AMR-69, 5-methyl-1-phenyl-2-(1H)-pyridone]", "values": [
      {"measurement": "microscopic examination of injection sites versus isotonic saline", "setting": "rabbit leg muscle; 2.0 ml of 2.0% aqueous solution i.m.", "result": "no difference between those of the isotonic saline and the parenteral AMR-69"},
      {"measurement": "histological examination of excised muscle", "setting": "rabbit leg muscle; 2.0 ml of 2.0% aqueous solution i.m., stained tissue sections", "result": "absence of any edema, erythema, chemosis, or necrosis"},
      {"measurement": "tissue reaction at injection site, gross examination (skin, subcutaneous fascia, muscle)", "setting": "rabbit leg muscle; 2.0 ml of 2.0% aqueous solution i.m., three hours", "result": "No evidence of tissue reaction was observed"},
      {"measurement": "discomfort after intramuscular injection", "setting": "rabbit leg muscle; 2.0 ml of 2.0% aqueous solution, three hours", "result": "No discomfort was evident"},
      {"measurement": "ED50", "setting": "[1]; Rattus norvegicus, read-out: oral ED50 (median analgesic dose)", "result": "145 ± 26", "unit": "mg/kg"},
      {"measurement": "analgesic effectiveness by the oral route as compared to aminopyrine", "setting": "[1]", "result": "as effective as aminopyrine"},
      {"measurement": "onset of analgesic effect as compared to aminopyrine", "setting": "[1]", "result": "more rapid onset of analgesic effect"},
      {"measurement": "blood dyscrasias", "setting": "blood", "result": "no indication of blood dyscrasias"},
      {"measurement": "protection of mucous membranes of the nasopharynx and lungs", "setting": "[2]", "result": "effective"},
      {"measurement": "irritation of body tissues at effective dosage levels", "setting": "[3]; effective dosage levels", "result": "relatively non-irritating to the various body tissues"},
      {"measurement": "side reactions on administration over extended periods", "setting": "[3]; extended periods", "result": "no untoward side reactions"},
      {"measurement": "relief from the symptom, skin conditions", "setting": "skin conditions; oral capsule (procedure of preceding section)", "result": "Relief from the symptom was rapid in each instance"},
      {"measurement": "relief from itching, contact dermatitis (poison ivy)", "setting": "skin conditions; powder applied directly to the affected skin areas", "result": "substantially immediate relief from the characteristic itching"},
      {"measurement": "time to cessation of weeping of the affected areas", "setting": "skin conditions; powder applied topically, poison ivy", "result": "thirty"},
      {"measurement": "noxious effect of acute and chronic infections of the nasopharynx, cranial sinuses", "setting": "[4]", "result": "arrested and relieved"},
      {"measurement": "ED50", "setting": "[5]; Rattus norvegicus, read-out: oral median effective dose (ED50), anti-inflammatory", "result": "200 ± 46", "unit": "mg/kg"},
      {"measurement": "onset of the anti-inflammatory therapeutic effect", "setting": "[5]; vs aminopyrine", "result": "more rapid onset of the therapeutic effect"},
      {"measurement": "mean glucose, female, 600 mg./kg./day", "setting": "[6]; female rats, 600 mg./kg./day in diet, control 173.0 mg.%", "result": 144.8, "unit": "mg.%"},
      {"measurement": "mean glucose, female, 900 mg./kg./day", "setting": "[6]; female rats, 900 mg./kg./day in diet, control 173.0 mg.%", "result": 136, "unit": "mg/dL"},
      {"measurement": "mean glucose in the serum, male, 600 mg./kg./day", "setting": "[6]; male rats, 600 mg./kg./day in diet, nine weeks, control 155.8 mg.%", "result": 131.8, "unit": "mg.%"},
      {"measurement": "mean glucose in the serum, male, 900 mg./kg./day", "setting": "[6]; male rats, 900 mg./kg./day in diet, nine weeks, control 155.8 mg.%", "result": 132.6, "unit": "mg.%"},
      {"measurement": "Draize evaluation of eye irritation", "setting": "[7]", "result": "would not be considered as an irritant to the eye"},
      {"measurement": "group mean Draize score at 0.5 minutes", "setting": "[7]", "result": 2.0},
      {"measurement": "group mean Draize score at 30 minutes", "setting": "[7]", "result": 0.0},
      {"measurement": "group mean Draize score at 3.0 hours", "setting": "[7]", "result": 0.0},
      {"measurement": "lethal dosage level / toxicity as compared to aminopyrine", "setting": "[8]", "result": "markedly lower toxicity; also recorded: significant higher lethal dosage level as compared to aminopyrine"},
      {"measurement": "LD50", "setting": "Acute toxicity in mice", "result": "420 ± 9", "unit": "mg/kg"},
      {"measurement": "average change in temperature over a period of three hours", "setting": "[9]; 100 mg./kg. i.p., fevered albino rabbits, saline controls +0.9 ±0.17°C", "result": "-0.4 ±0.12", "unit": "°C"},
      {"measurement": "reduction in fever as compared to the saline control", "setting": "[9]; 100 mg./kg. i.p., aminopyrine t = 6.6, p < 0.01, AMR-69 t = 6.3, p < 0.01", "result": "highly significant"},
      {"measurement": "anti-pyretic activity", "setting": "[9]; rabbits, induced fever", "result": "effective anti-pyretic agent"},
      {"measurement": "absorption in the blood stream", "setting": "[10]", "result": "very rapidly absorbed in the blood stream"},
      {"measurement": "protection against noxious focal respiratory tract pathology (petechiae, edema, hemorrhage, focal infection)", "setting": "dog lung tissues", "result": "affording protection against noxious focal respiratory tract pathology"},
      {"measurement": "solubility compared with other analgesic uricosuric agents", "setting": "Solubility", "result": "more readily soluble than other analgesic uricosuric agents"},
      {"measurement": "protection against noxious focal respiratory tract pathology (petechiae, edema, hemorrhage, focal infection)", "setting": "rat lung tissues", "result": "affording protection against noxious focal respiratory tract pathology"}
    ]}
  ]
}
